Assay results from US7417066B2, “Inhibitors of soluble adenylate cyclase” (Schering AG, priority 2005, dated 2008).

Target: soluble, sperm-specific adenylate cyclase (sAC) (Homo sapiens, UniProt Q96PN6)
Test: sAC assay (HTRF cAMP detection)
Assay type: biochemical
Conditions: read-out: IC50 (μM), inhibition of soluble adenylate cyclase
Source text: In a suitable buffer system, soluble, sperm-specific adenylate cyclase catalyzes the conversion of adenosine triphosphate (ATP) to cyclic adenosine monophosphate (cAMP) and pyrophosphate. Free cAMP generated in this way is then used in a competitive detection technique, in which the binding of a europium cryptate Eu[K]-labeled anti-cAMP antibody (anti-cAMP-Eu[K]-AB) to a modified allophycocyanine-1 molecule labeled with cAMP molecules (cAMP-XL665) is prevented. In the absence of exogenous cAMP, after excitation at 335 nm there is Fluorescence Resonance Energy Transfer (FRET) between the anti-cAMP-Eu[K]-AB (FRET donor) and the cAMP-XL665 molecule (FRET acceptor). This process is quantified, time-resolved, on the basis of the emission of the FRET acceptor XL665 (665 nm and 620 nm). A decrease in signal (measured as Well Ratio; calculated from the Formula: [(E665 nm/E620 nm)×10000]) can be attributed to the presence of cAMP and thus to the activity of sAC. First, 1.5 μl of the test substance (in 30% DMSO) is placed in each well of a 384-well test plate (polystyrene; 384, NV), and in the solvent controls only 30% DMSO. Then 10 μl of a dilute sAC enzyme solution is applied (enzyme stock solution in 300 mM NaCl, 10% glycerol; pH 7.6; enzyme intermediate and final dilution a) 1:10 and b) 1:2000 in each case in: 1.0 mM MnCl2; 0.2% BSA; 50 mM Tris pH 7.5 in H2O). […]
Next, 8 μl of detection solution 1 is placed in a well of the 384-well measuring plate (measuring plate: polystyrene; 384, SV—black; detection solution 1: 50 μl cAMP-XL665; 950 μl reconstituted buffer; 2200 μl PBS; cAMP-XL665: prepared by adding 5 ml H2O to the lyophilized product according to the instructions in Cis bio Kit: 62AMPPEC; storage: in aliquots at −80° C.). […] After further incubation for 90 min at room temperature, the HTRF result is measured either on the Packard Discovery or with the RubiStar HTRF measuring instrument (delay: 50 μs; integration time: 400 μs).

soluble, sperm-specific adenylate cyclase (sAC), sequence (Q96PN6 whole entry): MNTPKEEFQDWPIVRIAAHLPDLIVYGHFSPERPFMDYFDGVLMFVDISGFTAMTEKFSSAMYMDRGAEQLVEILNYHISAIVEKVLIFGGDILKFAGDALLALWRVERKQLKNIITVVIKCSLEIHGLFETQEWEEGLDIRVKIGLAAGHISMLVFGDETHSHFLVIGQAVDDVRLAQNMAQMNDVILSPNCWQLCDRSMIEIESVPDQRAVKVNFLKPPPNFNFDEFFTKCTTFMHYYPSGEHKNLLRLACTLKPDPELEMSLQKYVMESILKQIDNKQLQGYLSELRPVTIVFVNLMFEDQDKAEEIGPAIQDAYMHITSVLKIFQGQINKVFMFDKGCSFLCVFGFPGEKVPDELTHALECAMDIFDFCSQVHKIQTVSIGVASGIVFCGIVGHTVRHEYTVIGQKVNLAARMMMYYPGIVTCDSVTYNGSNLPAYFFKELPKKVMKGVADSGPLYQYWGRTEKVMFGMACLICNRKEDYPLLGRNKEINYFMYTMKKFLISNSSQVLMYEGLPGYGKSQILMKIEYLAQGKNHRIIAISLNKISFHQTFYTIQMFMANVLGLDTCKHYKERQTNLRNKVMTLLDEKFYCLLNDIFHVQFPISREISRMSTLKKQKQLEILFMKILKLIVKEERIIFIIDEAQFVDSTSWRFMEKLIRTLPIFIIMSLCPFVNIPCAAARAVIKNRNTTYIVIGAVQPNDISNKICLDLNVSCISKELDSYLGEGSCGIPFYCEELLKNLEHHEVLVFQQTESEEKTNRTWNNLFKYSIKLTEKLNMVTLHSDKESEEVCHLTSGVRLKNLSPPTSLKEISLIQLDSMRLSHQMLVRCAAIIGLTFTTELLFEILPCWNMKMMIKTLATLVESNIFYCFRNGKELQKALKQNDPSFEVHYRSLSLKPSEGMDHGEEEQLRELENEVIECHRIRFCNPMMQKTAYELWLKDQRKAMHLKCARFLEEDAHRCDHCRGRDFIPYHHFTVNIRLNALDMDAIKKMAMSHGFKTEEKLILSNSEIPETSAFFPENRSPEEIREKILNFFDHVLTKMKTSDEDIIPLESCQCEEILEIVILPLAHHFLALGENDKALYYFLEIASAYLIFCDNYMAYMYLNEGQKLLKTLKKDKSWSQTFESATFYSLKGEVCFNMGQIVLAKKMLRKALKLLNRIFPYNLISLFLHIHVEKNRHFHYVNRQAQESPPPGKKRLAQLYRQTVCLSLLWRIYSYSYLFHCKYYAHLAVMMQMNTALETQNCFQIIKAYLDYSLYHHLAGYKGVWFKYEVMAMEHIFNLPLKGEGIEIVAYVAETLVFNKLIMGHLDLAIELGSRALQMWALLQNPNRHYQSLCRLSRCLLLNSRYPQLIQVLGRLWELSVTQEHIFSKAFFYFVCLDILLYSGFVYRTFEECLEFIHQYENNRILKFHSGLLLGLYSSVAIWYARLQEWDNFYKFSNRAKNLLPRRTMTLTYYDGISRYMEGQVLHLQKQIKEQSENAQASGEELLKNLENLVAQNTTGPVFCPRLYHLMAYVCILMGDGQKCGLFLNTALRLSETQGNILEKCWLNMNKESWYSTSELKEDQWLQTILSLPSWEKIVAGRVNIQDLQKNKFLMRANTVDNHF

## CC(O)CNC(=O)c1oc2ccc(NS(=O)(=O)c3ccc(C(C)(C)C)cc3)cc2c1-c1ccccc1 (racemic) [Example 16, (+/−)-5-(4-tert-Butylphenylsulfonylamino)-3-phe-nyl-1-benzofuran-2-carboxylicacid-(2-hydroxypropyl)amide]
  IC50: 4.3 µM

## CC(CO)NC(=O)c1oc2ccc(NS(=O)(=O)c3ccc(C(C)(C)C)cc3)cc2c1-c1ccccc1 (racemic) [Example 17, (+/−)-5-(4-tert-Butylbenzenesulfonylamino)-3-phe-nyl-1-benzofuran-2-carboxylicacid-(2-hydroxy-1-meth-ylethyl)amide]
  IC50: 8.5 µM

## CC(C)(C)c1ccc(S(=O)(=O)Nc2ccc3oc(C(=O)NCCN4CCOCC4)c(-c4ccccc4)c3c2)cc1 [Example 6, 5-(4-tert-Butylbenzenesulfonylamino)-3-phe-nyl-1-benzofuran-2-carboxylicacid-(2-morpholin-4-ylethyl)amide]
  IC50: 5.2 µM
